Experimental data: PMC8634693 (European Journal of Medicinal Chemistry, 2021)
Entries after “also recorded” stand apart in the source; their conditions may differ.

What was measured:
SARS-CoV-2 3CL^pro [1] = target: T1, SARS-CoV-2 3CL^pro (Severe acute respiratory syndrome coronavirus 2, UniProt P0DTD1); format: biochemical
SARS-CoV-2 3CL^pro [2] = target: T1, SARS-CoV-2 3CL^pro; format: biochemical; remark: listed apart in the source
[3] = Gastrointestinal stability in simulated gastric fluid; format: in vitro ADME; details: 20 μM, 37 °C, in 90 min
[4] = Phase I metabolic stability in human liver microsomes
[5] = Phase II metabolic stability; details: human liver microsomes, in the presence of UDPGA
[6] = Plasma stability in human plasma; format: in vitro ADME; details: 37 °C, up to 12 h

In the case of `CC(=O)OCC1Cc2c(-c3cc(C)ccn3)cccc2-c2c(O)ccc(C)c21` (stereo not shown) [Compound A16], the “inhibitory activity against SARS-CoV-2 3CLpro, in words” value (“inhibitory activity” for short) (SARS-CoV-2 3CL^pro [1]) is reported as “comparable inhibitory activities with A1”.

For `CC(=O)OCC1Cc2c(-c3ccccn3)ccc(C)c2-c2c(O)ccc(C)c21` (stereo not shown) [Compound A8], the “inhibitory activity” value (SARS-CoV-2 3CL^pro [1]) was “significant loss of potency”.

For `CC(=O)OCC1Cc2c(-c3ncccc3C)cccc2-c2c(O)ccc(C)c21` (stereo not shown) [Compound A15], the “inhibitory activity” value (SARS-CoV-2 3CL^pro [1]) was “comparable inhibitory activities with A1”.

For `CC(=O)OCC1Cc2c(cccc2-c2ncnc3c2ncn3CC2CC2)-c2c(O)ccc(C)c21` (stereo not shown) [Compound A27], the “inhibitory activity” value (SARS-CoV-2 3CL^pro [1]) was “no inhibitory activity”.

In the case of `CC(=O)OCC1Cc2c(-c3ccccn3)ccc(Br)c2-c2c(O)ccc(C)c21` (stereo not shown) [Compound A12], the “inhibitory activity” value (SARS-CoV-2 3CL^pro [1]) is reported as “significant loss of potency”.

In the case of `CC(=O)OCC1Cc2c(-c3ccccn3)ccc(F)c2-c2c(O)ccc(C)c21` (stereo not shown) [Compound A10], the “inhibitory activity” value (SARS-CoV-2 3CL^pro [1]) is reported as “significant loss of potency”.

In the case of `CC(=O)OCC1Cc2c(-c3cc4ccccc4cn3)cccc2-c2c(O)ccc(C)c21` (stereo not shown) [Compound A22], the “inhibitory activity” value (SARS-CoV-2 3CL^pro [1]) is reported as “increased inhibitory activities”.

In the case of `CC(=O)OCC1Cc2c(-c3ccc(Cl)cn3)cccc2-c2c(O)ccc(C)c21` (stereo not shown) [Compound A19], the “inhibitory activity” value (SARS-CoV-2 3CL^pro [1]) is reported as “increased inhibitory activities”.

With `CC(=O)OCC1Cc2c(-c3ccc4ccccc4n3)cccc2-c2c(O)ccc(C)c21` (stereo not shown) [Compound A23] the “inhibitory activity” value (SARS-CoV-2 3CL^pro [1]) was “increased inhibitory activities”.

With `CC(=O)OCC1Cc2c(-c3ncccn3)cccc2-c2c(O)ccc(C)c21` (stereo not shown) [Compound A24] the “inhibitory activity” value (SARS-CoV-2 3CL^pro [1]) was “no inhibitory activity”.

For `O=Cc1ccnc(-c2cccc3c2CC(CO)c2c(-c4ccc(Br)cc4)ccc(O)c2-3)c1` (stereo not shown) [Compound C2, 2-(8-(4-bromophenyl)-5-hydroxy-9-(hydroxymethyl)-9,10-dihydrophenanthren-1-yl)isonicotinaldehyde], the Inhibition mode (SARS-CoV-2 3CL^pro [2]) was “Mixed”, the inhibition manner (SARS-CoV-2 3CL^pro [2]) was “mixed-inhibition” and the “gastrointestinal stability in SGF and SIF” value [3] was “good gastrointestinal stabilities”. For the same molecule, the “metabolism by human cytochrome P450 enzymes (hCYPs), in words” value [4] was “readily metabolized” and the “metabolism by human hepatic UDP-glucuronosyltransferases (hUGTs), in words” value [5] was “moderately metabolized”.

For `CC(=O)OCC1Cc2c(-c3ccc(Br)cn3)cccc2-c2c(O)ccc(C)c21` (stereo not shown) [Compound A20], the “inhibitory activity” value (SARS-CoV-2 3CL^pro [1]) was “increased inhibitory activities”.

With `CC(=O)OCC1Cc2c(cccc2-c2nccc3ccccc23)-c2c(O)ccc(C)c21` (stereo not shown) [Compound A21] the “inhibitory activity” value (SARS-CoV-2 3CL^pro [1]) was “increased inhibitory activities”.

With `CC(=O)OCC1Cc2c(cccc2-n2cccn2)-c2c(O)ccc(C)c21` (stereo not shown) [Compound A26] the “inhibitory activity” value (SARS-CoV-2 3CL^pro [1]) was “no inhibitory activity”.

In the case of `CC(=O)OCC1Cc2c(-c3ccncn3)cccc2-c2c(O)ccc(C)c21` (stereo not shown) [Compound A25], the “inhibitory activity” value (SARS-CoV-2 3CL^pro [1]) is reported as “no inhibitory activity”.

For `OCC1Cc2c(-c3cc(-c4ccccc4)ccn3)cccc2-c2c(O)ccc(-c3ccc(Br)cc3)c21` (stereo not shown) [Compound C1, 1-(4-bromophenyl)-10-(hydroxymethyl)-8-(4-phenylpyridin-2-yl)-9,10-dihydrophenanthren-4-ol], the Inhibition mode (SARS-CoV-2 3CL^pro [2]) was “Mixed”, the inhibition manner (SARS-CoV-2 3CL^pro [2]) was “mixed-inhibition” and the “gastrointestinal stability in SGF and SIF” value [3] was “good gastrointestinal stabilities”. For the same molecule, the “plasma stability, in words” value [6] was “prominent; also recorded: excellent plasma stability”, the “inhibitory effects against CYPs” value (major CYPs in HLMs) was “moderate inhibitory effects” and the “metabolism by human cytochrome P450 enzymes (hCYPs), in words” value [4] was “hardly metabolized”. For the same molecule, the “metabolism by human hepatic UDP-glucuronosyltransferases (hUGTs), in words” value [5] was “hardly metabolized”.

With `OCC1Cc2c(-c3ccc(F)cn3)cccc2-c2c(O)ccc(-c3ccc(Br)cc3)c21` (stereo not shown) [Compound C4, 1-(4-bromophenyl)-8-(5-fluoropyridin-2-yl)-10-(hydroxymethyl)-9,10-dihydrophenanthren-4-ol] the “inhibitory activity” value (SARS-CoV-2 3CL^pro [1]) was “slight decreases in the inhibitory activity”.

With `C=CCn1cnc2c(-c3cccc4c3CC(COC(C)=O)c3c(C)ccc(O)c3-4)ncnc21` (stereo not shown) [Compound A28] the “inhibitory activity” value (SARS-CoV-2 3CL^pro [1]) was “no inhibitory activity”.

For `OCC1Cc2c(-c3ccc(Cl)cn3)cccc2-c2c(O)ccc(-c3ccc(Br)cc3)c21` (stereo not shown) [Compound C5, 1-(4-bromophenyl)-8-(5-chloropyridin-2-yl)-10-(hydroxymethyl)-9,10-dihydrophenanthren-4-ol], the “inhibitory activity” value (SARS-CoV-2 3CL^pro [1]) was “slight decreases in the inhibitory activity”.

With `COc1ccc(-c2ccccn2)c2c1-c1c(O)ccc(C)c1C(COC(C)=O)C2` (stereo not shown) [Compound A9] the “inhibitory activity” value (SARS-CoV-2 3CL^pro [1]) was “significant loss of potency”.

For `CC(=O)OCC1Cc2c(-c3ccc(F)cn3)cccc2-c2c(O)ccc(C)c21` (stereo not shown) [Compound A18], the “inhibitory activity” value (SARS-CoV-2 3CL^pro [1]) was “comparable inhibitory activities with A1”.
